Laboratory results as given in patent US11414378B2, “Anti-fungals compounds targeting the synthesis of fungal sphingolipids” (THE RESEARCH FOUNDATION FOR THE STATE UNIVERSITY OF NEW YORK, priority 2017, dated 2022).
In brackets after ≈: the same amount, converted by molar mass.

tested on: C. neoformans; test: In vitro susceptibility (MIC80) assay; format: cell-based; conditions: Cryptococcus neoformans; lowest concentration that inhibited 80% of growth; YNB pH 7.0, HEPES, 37° C., 5% CO2
Method: MICs was determined following the methods of the Clinical and Laboratory Standards Institutes (CLSI) with modifications. Yeast Nitrogen Base (YNB) medium (pH 7.0, 0.2% glucose) buffered with HEPES was used for MIC studies. […] The compound was serially diluted from 16 to 0.03 μg/ml, in a 96-well plate. The inoculum was prepared as described in the CLSI protocol M27A3 guidelines. The plates were incubated at 37° C. with 5% CO2 for 24 to 72 h and the optical density was measure at 450 nm. The MICs was determined as the lowest concentration of the compound that inhibited 80% of growth compared to the control.

| MIC80 | Compound |
| --- | --- |
| 1 µg/mL (≈ 2.92 µM) | O=C(N/N=C/c1cccc(Cl)c1O)c1cccc(C(F)(F)F)c1 [Compound A24, 3-Trifluoromethyl-N′-(3-chloro-2-hydroxybenzylidene)benzohydrazide] |
| 1 µg/mL (≈ 2.58 µM) | O=C(N/N=C/c1cccc(Br)c1O)c1cccc(C(F)(F)F)c1 [Compound A25, 3-Trifluoromethyl-N′-(3-bromo-2-hydroxybenzylidene)benzohydrazide] |
| 0.5 µg/mL (≈ 1.29 µM) | O=C(N/N=C/c1ccc(Br)cc1O)c1cccc(C(F)(F)F)c1 [Compound A26, 3-Trifluoromethyl-N′-(4-bromo-2-hydroxybenzylidene)benzohydrazide] |
| 1 µg/mL (≈ 2.97 µM) | O=C(N/N=C/c1cccc(Br)c1O)c1cccc(F)c1 [Compound A27, 3-Fluoro-N′-(3-bromo-2-hydroxybenzylidene)benzohydrazide] |
| 0.5 µg/mL (≈ 1.48 µM) | O=C(N/N=C/c1ccc(Br)cc1O)c1cccc(F)c1 [Compound A28, 3-Fluoro-N′-(4-bromo-2-hydroxybenzylidene)benzohydrazide] |
| 0.06 µg/mL (≈ 0.108 µM) | O=C(N/N=C/c1cc(Br)cc(Br)c1O)c1ccc(Br)c(Br)c1 [Compound A29, 3,4-Dibromo-N′-(3,5-dibromo-2-hydroxybenzylidene)benzohydrazide] |
| < 0.03 µg/mL | O=C(N/N=C/c1cc(Cl)cc(Cl)c1O)c1ccc(Br)c(Br)c1 [Compound A30, 3,4-Dibromo-N′-(3,5-dichloro-2-hydroxybenzylidene)benzohydrazide] |
| 0.06 µg/mL (≈ 0.139 µM) | O=C(N/N=C/c1cc(Cl)ccc1O)c1ccc(Br)c(Br)c1 [Compound A31, 3,4-Dibromo-N′-(5-chloro-2-hydroxybenzylidene)benzohydrazide] |
| 0.12 µg/mL (≈ 0.268 µM) | O=C(N/N=C/c1c(O)ccc2ccccc12)c1ccc(Br)c(Br)c1 [Compound A32, 3,4-Dibromo-N′-(2-hydroxy-1-naphthylidene)benzohydrazide] |
| 0.25 µg/mL (≈ 0.524 µM) | O=C(N/N=C/c1cc(Br)ccc1O)c1ccc(Br)c(Br)c1 [Compound A33, 3,4-Dibromo-N′-(5-bromo-2-hydroxybenzylidene)benzohydrazide] |
| 0.12 µg/mL (≈ 0.291 µM) | Cc1ccc(O)c(/C=N/NC(=O)c2ccc(Br)c(Br)c2)c1 [Compound A34, 3,4-Dibromo-N′-(2-hydroxy-5-methylbenzylidene)benzohydrazide] |
| 0.06 µg/mL (≈ 0.126 µM) | O=C(N/N=C/c1ccc(Br)cc1O)c1ccc(Br)c(Br)c1 [Compound A35, 3,4-Dibromo-N′-(4-bromo-2-hydroxybenzylidene)benzohydrazide] |
| 0.06 µg/mL (≈ 0.126 µM) | O=C(N/N=C/c1cc(Br)ccc1O)c1cc(Br)cc(Br)c1 [Compound A36, 3,5-Dibromo-N′-(5-bromo-2-hydroxybenzylidene)benzohydrazide] |
| 0.25 µg/mL (≈ 0.558 µM) | O=C(N/N=C/c1c(O)ccc2ccccc12)c1cc(Br)cc(Br)c1 [Compound A37, 3,5-Dibromo-N′-(2-hydroxy-1-naphthylidene)benzohydrazide] |
| 0.5 µg/mL (≈ 1.07 µM) | O=C(N/N=C/c1cc(Cl)cc(Cl)c1O)c1cc(Br)cc(Br)c1 [Compound A38, 3,5-Dibromo-N′-(3,5-dichloro-2-hydroxybenzylidene)benzohydrazide] |
| 1 µg/mL (≈ 2.1 µM) | O=C(N/N=C/c1ccc(Br)cc1O)c1cc(Br)cc(Br)c1 [Compound A39, 3,5-Dibromo-N′-(4-bromo-2-hydroxybenzylidene)benzohydrazide] |
| 0.12 µg/mL (≈ 0.277 µM) | O=C(N/N=C/c1cc(Cl)ccc1O)c1cc(Br)cc(Br)c1 [Compound A40, 3,5-Dibromo-N′-(5-chloro-2-hydroxybenzylidene)benzohydrazide] |
| 0.5 µg/mL (≈ 1.21 µM) | Cc1ccc(O)c(/C=N/NC(=O)c2cc(Br)cc(Br)c2)c1 [Compound A41, 3,5-Dibromo-N′-(2-hydroxy-5-methylbenzylidene)benzohydrazide] |
| 0.5 µg/mL (≈ 0.9 µM) | O=C(N/N=C/c1cc(Br)cc(Br)c1O)c1cccc(Br)c1Br [Compound A42, 2,3-Dibromo-N′-(3,5-dibromo-2-hydroxybenzylidene)benzohydrazide] |
| 1 µg/mL (≈ 2.14 µM) | O=C(N/N=C/c1cc(Cl)cc(Cl)c1O)c1cccc(Br)c1Br [Compound A43, 2,3-Dibromo-N′-(3,5-dichloro-2-hydroxybenzylidene)benzohydrazide] |

tested on: C. neoformans cells; test: In vitro killing activity (K100) assay; format: cell-based, Cryptococcus neoformans; conditions: Cryptococcus neoformans; minimum concentration that kills 100% of C. neoformans cells in 48 h
Method: C. neoformans cells from a culture grown overnight were washed in PBS and resuspended in YNB buffered with HEPES at pH 7.4. The cells were counted, and 2×10^4 cells were incubated with different concentration of compounds in a final volume of 10 ml with a final concentration of 0.5% DMSO. The tubes were then incubated at 37° C. with 5% CO2 on a rotary shaker at 200 rpm. Aliquots were taken at time points and diluted, and […] were plated onto Yeast Extract-Peptone-Dextrose (YPD) plates. YPD plates were incubated in a 30° C. incubator and after 48 h, the numbers of CFU were counted and recorded.

| Compound | MFC |
| --- | --- |
| O=C(N/N=C/c1cccc(Cl)c1O)c1cccc(C(F)(F)F)c1 [Compound A24, 3-Trifluoromethyl-N′-(3-chloro-2-hydroxybenzylidene)benzohydrazide] | 4 µg/mL (≈ 11.7 µM) |
| O=C(N/N=C/c1cccc(Br)c1O)c1cccc(C(F)(F)F)c1 [Compound A25, 3-Trifluoromethyl-N′-(3-bromo-2-hydroxybenzylidene)benzohydrazide] | 2 µg/mL (≈ 5.17 µM) |
| O=C(N/N=C/c1ccc(Br)cc1O)c1cccc(C(F)(F)F)c1 [Compound A26, 3-Trifluoromethyl-N′-(4-bromo-2-hydroxybenzylidene)benzohydrazide] | 1 µg/mL (≈ 2.58 µM) |
| O=C(N/N=C/c1cccc(Br)c1O)c1cccc(F)c1 [Compound A27, 3-Fluoro-N′-(3-bromo-2-hydroxybenzylidene)benzohydrazide] | 2 µg/mL (≈ 5.93 µM) |
| O=C(N/N=C/c1ccc(Br)cc1O)c1cccc(F)c1 [Compound A28, 3-Fluoro-N′-(4-bromo-2-hydroxybenzylidene)benzohydrazide] | > 2 µg/mL |
| O=C(N/N=C/c1cc(Br)cc(Br)c1O)c1ccc(Br)c(Br)c1 [Compound A29, 3,4-Dibromo-N′-(3,5-dibromo-2-hydroxybenzylidene)benzohydrazide] | > 0.5 µg/mL |
| O=C(N/N=C/c1cc(Cl)cc(Cl)c1O)c1ccc(Br)c(Br)c1 [Compound A30, 3,4-Dibromo-N′-(3,5-dichloro-2-hydroxybenzylidene)benzohydrazide] | > 0.025 µg/mL |
| O=C(N/N=C/c1cc(Cl)ccc1O)c1ccc(Br)c(Br)c1 [Compound A31, 3,4-Dibromo-N′-(5-chloro-2-hydroxybenzylidene)benzohydrazide] | > 0.5 µg/mL |
| O=C(N/N=C/c1c(O)ccc2ccccc12)c1ccc(Br)c(Br)c1 [Compound A32, 3,4-Dibromo-N′-(2-hydroxy-1-naphthylidene)benzohydrazide] | > 1 µg/mL |
| O=C(N/N=C/c1cc(Br)ccc1O)c1ccc(Br)c(Br)c1 [Compound A33, 3,4-Dibromo-N′-(5-bromo-2-hydroxybenzylidene)benzohydrazide] | 2 µg/mL (≈ 4.19 µM) |
| Cc1ccc(O)c(/C=N/NC(=O)c2ccc(Br)c(Br)c2)c1 [Compound A34, 3,4-Dibromo-N′-(2-hydroxy-5-methylbenzylidene)benzohydrazide] | > 1 µg/mL |
| O=C(N/N=C/c1ccc(Br)cc1O)c1ccc(Br)c(Br)c1 [Compound A35, 3,4-Dibromo-N′-(4-bromo-2-hydroxybenzylidene)benzohydrazide] | > 5 µg/mL |
| O=C(N/N=C/c1cc(Br)ccc1O)c1cc(Br)cc(Br)c1 [Compound A36, 3,5-Dibromo-N′-(5-bromo-2-hydroxybenzylidene)benzohydrazide] | > 5 µg/mL |
| O=C(N/N=C/c1c(O)ccc2ccccc12)c1cc(Br)cc(Br)c1 [Compound A37, 3,5-Dibromo-N′-(2-hydroxy-1-naphthylidene)benzohydrazide] | 0.5 µg/mL (≈ 1.12 µM) |
| O=C(N/N=C/c1cc(Cl)cc(Cl)c1O)c1cc(Br)cc(Br)c1 [Compound A38, 3,5-Dibromo-N′-(3,5-dichloro-2-hydroxybenzylidene)benzohydrazide] | 0.5 µg/mL (≈ 1.07 µM) |
| O=C(N/N=C/c1ccc(Br)cc1O)c1cc(Br)cc(Br)c1 [Compound A39, 3,5-Dibromo-N′-(4-bromo-2-hydroxybenzylidene)benzohydrazide] | 1 µg/mL (≈ 2.1 µM) |
| O=C(N/N=C/c1cc(Cl)ccc1O)c1cc(Br)cc(Br)c1 [Compound A40, 3,5-Dibromo-N′-(5-chloro-2-hydroxybenzylidene)benzohydrazide] | 1 µg/mL (≈ 2.31 µM) |
| Cc1ccc(O)c(/C=N/NC(=O)c2cc(Br)cc(Br)c2)c1 [Compound A41, 3,5-Dibromo-N′-(2-hydroxy-5-methylbenzylidene)benzohydrazide] | 1 µg/mL (≈ 2.43 µM) |
| O=C(N/N=C/c1cc(Br)cc(Br)c1O)c1cccc(Br)c1Br [Compound A42, 2,3-Dibromo-N′-(3,5-dibromo-2-hydroxybenzylidene)benzohydrazide] | 0.5 µg/mL (≈ 0.9 µM) |
| O=C(N/N=C/c1cc(Cl)cc(Cl)c1O)c1cccc(Br)c1Br [Compound A43, 2,3-Dibromo-N′-(3,5-dichloro-2-hydroxybenzylidene)benzohydrazide] | 1 µg/mL (≈ 2.14 µM) |
